Measurements taken from the NIST ThermoML archive (doi:10.1007/s10765-010-0766-0).

Test: molar heat capacity at constant volume; wn = mass fraction of the nth substance listed
Details: Liquid, Vacuum adiabatic calorimetry, w2 = 0.4981

FC(F)C(F)(F)F [pentafluoroethane] + FCF
Details	molar heat capacity at constant volume [J/K/mol]
357.15 K, 9042 kPa	82.22
357.15 K, 9048 kPa	82.43
357.15 K, 16243 kPa	68.41
357.15 K, 16254 kPa	69.93
357.15 K, 16277 kPa	69.42
358.15 K, 9284 kPa	81.71
358.15 K, 9290 kPa	83.6
358.15 K, 16617 kPa	69.79
358.15 K, 16628 kPa	70.73
358.15 K, 16652 kPa	69.13
359.15 K, 9527 kPa	82.29
359.15 K, 9532 kPa	83.09
359.15 K, 16990 kPa	69.86
359.15 K, 17003 kPa	71.24
359.15 K, 17027 kPa	67.9
360.15 K, 9770 kPa	82.07
360.15 K, 9775 kPa	82.29
360.15 K, 17365 kPa	69.42
360.15 K, 17377 kPa	68.55
360.15 K, 17401 kPa	69.64
361.15 K, 10013 kPa	81.2
361.15 K, 10019 kPa	82.73
361.15 K, 17739 kPa	70.08
361.15 K, 17752 kPa	71.46
361.15 K, 17776 kPa	68.48
362.15 K, 10256 kPa	82.65
362.15 K, 10262 kPa	83.31
362.15 K, 18113 kPa	69.42
362.15 K, 18127 kPa	71.17
362.15 K, 18151 kPa	69.06
363.15 K, 10501 kPa	80.69
363.15 K, 10506 kPa	82.22
363.15 K, 18487 kPa	70.59
363.15 K, 18501 kPa	69.57
363.15 K, 18526 kPa	69.79
364.15 K, 10745 kPa	81.78
364.15 K, 10751 kPa	81.56
364.15 K, 18862 kPa	69.2
364.15 K, 18876 kPa	70.8
364.15 K, 18899 kPa	68.91
365.15 K, 10990 kPa	81.49
365.15 K, 10996 kPa	82.29
365.15 K, 19236 kPa	69.57
365.15 K, 19250 kPa	69.79
365.15 K, 19274 kPa	70.08
366.15 K, 11235 kPa	80.04
366.15 K, 11241 kPa	81.78
366.15 K, 19610 kPa	70
366.15 K, 19625 kPa	70.22
366.15 K, 19649 kPa	68.99
367.15 K, 11480 kPa	81.49
367.15 K, 11486 kPa	81.93
367.15 K, 19985 kPa	69.06
367.15 K, 20000 kPa	69.86
367.15 K, 20025 kPa	68.48
368.15 K, 11726 kPa	81.42
368.15 K, 11732 kPa	82.07
368.15 K, 20360 kPa	69.35
368.15 K, 20375 kPa	69.71
368.15 K, 20400 kPa	68.77
369.15 K, 11972 kPa	79.89
369.15 K, 11979 kPa	82.73
369.15 K, 20734 kPa	69.42
369.15 K, 20750 kPa	70
369.15 K, 20776 kPa	68.7
370.15 K, 12219 kPa	80.69
370.15 K, 12225 kPa	80.76
370.15 K, 21109 kPa	70.8
370.15 K, 21125 kPa	69.35
370.15 K, 21150 kPa	69.2
371.15 K, 12465 kPa	80.25
371.15 K, 12472 kPa	82.07
371.15 K, 21484 kPa	70.3
371.15 K, 21500 kPa	71.82
371.15 K, 21525 kPa	68.55
372.15 K, 12712 kPa	80.11
372.15 K, 12719 kPa	81.78
372.15 K, 21859 kPa	70.44
372.15 K, 21875 kPa	69.64
372.15 K, 21901 kPa	69.42
373.15 K, 12959 kPa	80.91
373.15 K, 12966 kPa	82.43
373.15 K, 22234 kPa	69.86
373.15 K, 22250 kPa	71.17
373.15 K, 22277 kPa	69.57
374.15 K, 13207 kPa	80.11
374.15 K, 13213 kPa	81.71
374.15 K, 22609 kPa	70.59
374.15 K, 22625 kPa	70.37
374.15 K, 22654 kPa	69.2
375.15 K, 13454 kPa	80.04
375.15 K, 13461 kPa	81.85
375.15 K, 22984 kPa	71.68
375.15 K, 23000 kPa	72.33
375.15 K, 23029 kPa	70.15
376.15 K, 13702 kPa	80.76
376.15 K, 13709 kPa	82.87
376.15 K, 23359 kPa	71.6
376.15 K, 23375 kPa	71.02
376.15 K, 23406 kPa	70.08
377.15 K, 13950 kPa	82.14
377.15 K, 13957 kPa	81.34
377.15 K, 23734 kPa	71.24
377.15 K, 23750 kPa	71.6
377.15 K, 23780 kPa	70.88
378.15 K, 14198 kPa	80.25
378.15 K, 14205 kPa	80.18
378.15 K, 24109 kPa	72.04
378.15 K, 24125 kPa	71.82
378.15 K, 24155 kPa	70.51
379.15 K, 14447 kPa	81.2
379.15 K, 14454 kPa	81.85
379.15 K, 24484 kPa	72.04
379.15 K, 24500 kPa	70.95
379.15 K, 24531 kPa	70.22
380.15 K, 14696 kPa	80.47
380.15 K, 14702 kPa	80.84
380.15 K, 24858 kPa	72.11
380.15 K, 24875 kPa	71.6
380.15 K, 24906 kPa	70.88
381.15 K, 14944 kPa	80.54
381.15 K, 14951 kPa	81.93
381.15 K, 25233 kPa	72.33
381.15 K, 25250 kPa	71.6
381.15 K, 25282 kPa	68.91
382.15 K, 15194 kPa	81.2
382.15 K, 15200 kPa	81.2
382.15 K, 25608 kPa	70.51
382.15 K, 25625 kPa	71.75
382.15 K, 25657 kPa	69.64
383.15 K, 15443 kPa	80.18
383.15 K, 15449 kPa	81.13
383.15 K, 25983 kPa	72.33
383.15 K, 26000 kPa	71.75
383.15 K, 26033 kPa	69.93
384.15 K, 15692 kPa	82.29
384.15 K, 15699 kPa	80.62
384.15 K, 26358 kPa	72.69
384.15 K, 26375 kPa	72.84
384.15 K, 26408 kPa	70
385.15 K, 15942 kPa	79.6
385.15 K, 15948 kPa	82.58
385.15 K, 26733 kPa	72.55
385.15 K, 26750 kPa	72.4
385.15 K, 26784 kPa	69.28
386.15 K, 16192 kPa	81.2
386.15 K, 16198 kPa	83.09
386.15 K, 27107 kPa	72.4
386.15 K, 27125 kPa	72.77
386.15 K, 27159 kPa	68.48
387.15 K, 16442 kPa	79.31
387.15 K, 16448 kPa	81.34
387.15 K, 27482 kPa	73.57
387.15 K, 27500 kPa	73.57
387.15 K, 27533 kPa	70.66
388.15 K, 16692 kPa	80.62
388.15 K, 16698 kPa	82.51
388.15 K, 27856 kPa	73.71
388.15 K, 27874 kPa	73.71
388.15 K, 27907 kPa	69.06
389.15 K, 16942 kPa	80.76
389.15 K, 16948 kPa	82.07
389.15 K, 28231 kPa	74.08
389.15 K, 28249 kPa	73.86
389.15 K, 28282 kPa	70.22
390.15 K, 17192 kPa	80.84
390.15 K, 17198 kPa	83.74
390.15 K, 28605 kPa	74.08
390.15 K, 28624 kPa	74.73
390.15 K, 28657 kPa	70.3
391.15 K, 17442 kPa	81.05
391.15 K, 17448 kPa	83.67
391.15 K, 28979 kPa	73.78
391.15 K, 28998 kPa	72.77
391.15 K, 29032 kPa	70.44
392.15 K, 17692 kPa	81.05
392.15 K, 17698 kPa	81.34
392.15 K, 29354 kPa	72.77
392.15 K, 29373 kPa	71.31
392.15 K, 29407 kPa	68.84
393.15 K, 17943 kPa	79.38
393.15 K, 17949 kPa	81.27
393.15 K, 29728 kPa	74
393.15 K, 29782 kPa	72.19
394.15 K, 18193 kPa	82
394.15 K, 18199 kPa	80.84
395.15 K, 18444 kPa	80.18
395.15 K, 18450 kPa	83.89
396.15 K, 18701 kPa	80.62
397.15 K, 18951 kPa	82.36
